“Also recorded” adds a separate entry of the source.
Experiments:
HIV [1] = conditions: cited from earlier work
[2] = cited from earlier work
[3] = cited from earlier work; remark: listed apart in the source
HIV [4] = conditions: clinical trials; cited from earlier work
[5] = tested on: Herpes Simplex Virus-1 (HSV1); assay: Antiviral experiment in mice infected IP with Herpes Simplex Virus-1; assay type: in vivo, HSV1 (Schloser), in ICR mice
Procedure: An antiviral experiment was conducted to compare treatment with 6-(5-Cholesten-3β-yloxy)hexyl 1-thio-β-D-mannopyranoside (Example 2) in mice infected IP with Herpes Simplex Virus-1 (HSV1) immediately before (post treatment) or after 5 days of treatment (pretreatment).
Ten mice (ICR, 20 gm, mixed sexes) were pretreated by SC injection of a 0.1 mL suspension of test compound twice a day for 4 days. On day 5, the mice were injected IP with 0.5 mL solution of HSV1 (Schloser, 10-5). The post treatment group was infected with HSV1 prior to administration of test compound. Day of death from time of infection with HSV1 was recorded for each mouse and average day of death per treatment group was calculated.

[6] = tested on: Mycobacterium avium-intracellulare; conditions: human, in vivo; cited from earlier work
Pseudomonas aeruginosa = assay: Stimulation of host resistance: protection of cyclophosphamide-immunocompromised mice from Pseudomonas aeruginosa infection; assay type: in vivo, Pseudomonas aeruginosa (Immunotype 1), in CF1 female mice; conditions: Table 3, CY-treated mice, dose not printed in table (initial test dose 40 mg per kg)
Procedure: Groups of 15-20 CF1 female mice (Charles River Breeding, Cambridge, Mass.) weighing 22-28 gm were injected intraperitoneally (i.p.) with cyclophosphamide (Cytoxan; CY) at 250 mg per kg body weight. One to two hours later they were typically injected again with the test material by the route specified. Four days later, the mice were divided into groups of five, each of which were injected i.p. with a different dilution of a suspension of Pseudomonas aeruginosa (Immunotype 1). The number of survivors was determined periodically and an estimate was made of the number of CFU of Pseudomonas organisms necessary to cause 50% lethality by the cumulative method of L. J. Reed and H. Muench (Am. J. Hygiene 27 (1938) 493-497). A protective index (P.I.) was defined as the LD50 for the mice receiving cyclophosphamide and the test compound divided by the LD50 for the mice receiving cyclophosphamide alone. All control mice were injected with aqueous vehicle in the same route and schedule as the test animals.
MATERIALS. All compounds for dosing were suspended in a sterile medium referred to as "aqueous vehicle" which contains 0.9% sodium chloride, 0.5% carboxymethyl cellulose, 0.4% Tween 80, and 0.9% benzyl alcohol unless otherwise stated. Test materials were evaluated via subcutaneous (s.c.), i.p., intramuscular (i.m.), orally (p.o.). and intravenous (i.v.) routes of administration. […]

[7] = tested on: human immunodeficiency virus (HIV); conditions: cited from earlier work
Kaposi's sarcoma = conditions: in vivo; cited from earlier work
[8] = tested on: reverse transcriptase in several retroviruses; conditions: in vitro; cited from earlier work

Compound: Cc1cn([C@H]2C[C@H](N=[N+]=[N-])[C@@H](CO)O2)c(=O)[nH]c1=O [AZT, 3'-azido-3'-deoxythymidine]
- prolonging lives of patients with AIDS or ARC (HIV [1]; human, in vivo): show promise in prolonging lives of patients with AIDS or AIDS-related complex (ARC)
- half-life in the body ([2]; in vivo): relatively short half-life in the body
- oral absorption ([2]; oral): Well absorbed orally
- toxicity ([3]; in vivo): some toxicity, with anemia and headaches

Compound: O=C(O)P(=O)(O)O [Foscarnet, trisodium phosphonoformate]
- side effects ([3]; in vivo): serious side effects

Compound: CC(C)(S)[C@@H](N)C(=O)O [D-Penicillamine, 3-mercapto-D-valine]
- HIV reproduction / viral replication in patients (HIV [4]): Inhibits HIV reproduction in humans; also recorded: suppressed the virus

Compound: CC(C)CCC[C@@H](C)[C@H]1CC[C@H]2[C@@H]3CC=C4C[C@@H](OCCCCCCS[C@@H]5O[C@H](CO)[C@@H](O)[C@H](O)[C@@H]5O)CC[C@]4(C)[C@H]3CC[C@]12C [Example 2, 6-(5-Cholesten-3β-yloxy)hexyl 1-thio-β-D-mannopyranoside]
- protection from fatal viral infection over placebo treated animals, by day of death ([5]; 50 mg/kg twice a day for four days): statistically enhanced protection from fatal viral infection over placebo treated animals
- protection of pretreated mice over the post treatment group ([5]; pretreatment vs post treatment): statistically enhanced protection over the post treatment group

Compound: NC(=O)c1ncn([C@@H]2O[C@H](CO)[C@@H](O)[C@H]2O)n1 [Ribavirin, 1-β-D-ribofuranosyl-1,2,4-triazole-3-carboxamide]
- immune function in ARC or AIDS patients (HIV [1]; human, in vivo): improved immune function in AIDS patients
- safety profile ([3]; in vivo): acceptable
- tolerability ([3]; in vivo): well tolerated
- HIV reproduction / viral replication in patients (HIV [4]): inhibited viral replication

Compound: CO[C@H]1/C=C/O[C@@]2(C)Oc3c(C)c(O)c4c(c3C2=O)C2=NC3(CCN(CC(C)C)CC3)NC2=C(NC(=O)/C(C)=C\C=C\[C@H](C)[C@H](O)[C@@H](C)[C@@H](O)[C@@H](C)[C@H](OC(C)=O)[C@@H]1C)C4=O [Ansamycin, rifabutin]
- efficacy in AIDS patients with opportunistic infection [6]: some efficacy in treating AIDS patients with an opportunistic infection

Compound: CC[C@H](/C=C/[C@@H](C)[C@H]1CC[C@H]2[C@@H]3CC=C4C[C@@H](OCCCCCCS[C@@H]5O[C@H](CO)[C@@H](O)[C@H](O)[C@@H]5O)CC[C@]4(C)[C@H]3CC[C@]12C)C(C)C [Example 6, 6-(Stigmasta-5,22-dien-3β-yloxy)hexyl 1-thio-β-D-mannopyranoside]
- Protective Index (log) (Pseudomonas aeruginosa): 2.0 log

Compound: CC(=O)NC(C)C1CCC2C3CC=C4CC(OCCCCCCSC5OC(CO)C(O)C(O)C5O)CCC4(C)C3CCC12C [Example 11, 6-(20S-Acetamido-pregn-5-en-3β-yloxy)hexyl 1-thio-β-D-mannopyranoside]
- Protective Index (log) (Pseudomonas aeruginosa): 3.0 log

Compound: Cc1ccc(C(=O)Nc2ccc(S(=O)(=O)O)c3cc(S(=O)(=O)O)cc(S(=O)(=O)O)c23)cc1NC(=O)c1cccc(NC(=O)Nc2cccc(C(=O)Nc3cc(C(=O)Nc4ccc(S(=O)(=O)O)c5cc(S(=O)(=O)O)cc(S(=O)(=O)O)c45)ccc3C)c2)c1 [Suramin]
- therapeutic benefit or clinical improvement in AIDS patients (HIV [1]): little or no evidence of clinical improvement or immunologic recovery

Compound: α-Interferon
- growth of HIV [7]: Checks the growth of HIV in vitro
- tumor regression in AIDS-related Kaposi's sarcoma (Kaposi's sarcoma): induced tumor regression in some AIDS-related Kaposi's sarcoma cases

Compound: ammonium 21-tungsto-9-antimoniate [HPA-23]
- therapeutic benefit or clinical improvement in AIDS patients (HIV [1]): no therapeutic benefit has been documented in AIDS patients
- reverse transcriptase inhibition, several retroviruses [8]: Inhibits reverse transcriptase in several retroviruses in vitro
- growth of HIV [7]: some tendency to check the growth of HIV

Compound: CC(C)(N1CC1C#N)N1CC1C(N)=O (stereo not drawn) [Azimexon]
- symptoms and immune function (HIV [1]; early trial, ARC and AIDS patients): improvements in symptoms and immune function in patients with ARC but not AIDS
- toxic effect ([3]; early trial, disappeared when treatment ceased): only toxic effect was mild hemolysis

Compound: CC(=O)Nc1ccc(C(=O)O)cc1.CC(=O)Nc1ccc(C(=O)O)cc1.CC(=O)Nc1ccc(C(=O)O)cc1.CC(O)CN(C)C.CC(O)CN(C)C.CC(O)CN(C)C.O=c1[nH]cnc2c1ncn2[C@@H]1O[C@H](CO)[C@@H](O)[C@H]1O [Inosine pranobex]
- immune function in ARC or AIDS patients (HIV [1]; human, in vivo): improve immune function in ARC patients

Reference: US4970199A, “Steroidal glycolipids as host resistance stimulators against viral infection” (priority 1989, dated 1990)
